We go through four compounds from US20090298797A1, “COMBINATION THERAPY FOR THE TREATMENT OF INFLUENZA” (priority 2008, published 2009).

“And” between values parts separate entries of the source, which are not always exact repeats. Equal entries are not always repeated.

For test [1], the system named is influenza A virus strain A/Vietnam/1194/04 (H5N1). Details: species or system BALB/c mice. The following applies: mouse, in vivo.
A further test concerns influenza A/H2N2 virus. The following applies: mouse, in vivo; cited from earlier work.
Test [2] relates to influenza A virus strain A/Vietnam/1194/04 (H5N1). Details: species or system BALB/c mice. The following applies: mouse, in vivo. This is another data set of the same source.
Test [3] deals with IL-1, IL-6, IFN-γ, TNF-α, MIP-1, PGE2, leukotriene. Description: ELISA of pro-inflammatory cytokines, chemokines, PGE2 and leukotriene in tracheal-pulmonary lavage. It is filed as in vivo, BALB/c mice.

With `Cc1ccc(-c2cc(C(F)(F)F)nn2-c2ccc(S(N)(=O)=O)cc2)cc1` [celecoxib], the mean survival time result in test [1] is reported as “about 8.5 days”.
As for `Cc1ccc(C)c(OCCCC(C)(C)C(=O)O)c1` [gemfibrozil], the “survival of mice infected by influenza A/H2N2 virus” value with influenza A/H2N2 virus is recorded as 52%. In addition, in test [1], the mean survival time entry was “about 7.5 days” and the survival result is listed as “no significant improvement”.
For the compound `Nc1ccc(O)c(C(=O)O)c1` [mesalazine, 5-aminosalicylic acid], the mean survival time entry in test [1] is “about 8.5 days”.
For `CC(=O)N[C@H]1[C@H]([C@H](O)[C@H](O)CO)OC(C(=O)O)=C[C@@H]1N=C(N)N` [zanamivir], the “TCID50 titer in the tracheal-pulmonary lavage” value in test [2] is “below our detectable limit”. Further, the “levels of inflammatory markers IL-6, IFN-γ, TNF-α, MIP-1 and leukotriene in tracheal-pulmonary lavage” value in test [3] (compared with triple therapy (P<0.01 or 0.05) or uninfected normal mice) was “significantly higher”. Besides, in test [3] (zanamivir alone and controls vs triple therapy, P>0.05), the “IL-1 levels in tracheal-pulmonary lavage” value is reported as “only slightly lower”. For the same compound, in test [1], the mean survival time was 10.7 ± 1.6 days and 8.4 days; the survival result is on record as “All mice survived”; the survival rate was found to be 13.3%.
